Experimental data reported in patent publication US20210395239A1 (Hoffmann-La Roche Inc., priority 2018, published 2021).

Columns and labels:
CYP2C9 = target: T1, CYP2C9 (Homo sapiens, UniProt P11712); test: CYP inhibition assay in human liver microsome, CYP2C9; format: in vitro ADME; settings: substrate diclofenac 5 μM, first value of 2C9/2D6/3A4; for inhibition at 5 min, 10 µM: human, human liver microsomes, probe diclofenac 5 μM
T1 construct: tissue BD-Gentest 452117; host or cells: human liver microsomes
In short: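 Pooled human liver microsomes with a substrate for each CYP were incubated with compound at 37 °C after NADPH addition, for 5 min (CYP2D6: 10 min), then quenched with acetonitrile containing labelled metabolite standards. Metabolite/internal-standard peak area ratios were measured by RapidFire MS/MS. % inhibition was scaled between DMSO and standard-inhibitor controls.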

hERG channel = target: T2, hERG channel (Homo sapiens, UniProt Q12809); test: hERG channel inhibition assay (patch-clamp, CHOhERG cells); format: cell-based; settings: for IC20: human, CHO cells stably expressing hERG (CHOhERG); for IC20 / IC50: patch-clamp, CHOhERG cells; for hERG IC20/TLR7 IC50 / hERG IC20/TLR8 IC50 / hERG IC20/TLR9 IC50: safety ratio
T2 construct: expressed in transfected cells; host or cells: CHO (Chinese hamster ovary)
In short: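 Whole-cell voltage-clamp recordings used CHO cells stably expressing human hERG, with IKhERG evoked by a voltage protocol at 0.1 Hz. Increasing compound concentrations were applied, each for 3–10 min to reach steady state, and current amplitude and kinetics were expressed relative to control (100%).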

T2 sequence (Q12809 whole entry): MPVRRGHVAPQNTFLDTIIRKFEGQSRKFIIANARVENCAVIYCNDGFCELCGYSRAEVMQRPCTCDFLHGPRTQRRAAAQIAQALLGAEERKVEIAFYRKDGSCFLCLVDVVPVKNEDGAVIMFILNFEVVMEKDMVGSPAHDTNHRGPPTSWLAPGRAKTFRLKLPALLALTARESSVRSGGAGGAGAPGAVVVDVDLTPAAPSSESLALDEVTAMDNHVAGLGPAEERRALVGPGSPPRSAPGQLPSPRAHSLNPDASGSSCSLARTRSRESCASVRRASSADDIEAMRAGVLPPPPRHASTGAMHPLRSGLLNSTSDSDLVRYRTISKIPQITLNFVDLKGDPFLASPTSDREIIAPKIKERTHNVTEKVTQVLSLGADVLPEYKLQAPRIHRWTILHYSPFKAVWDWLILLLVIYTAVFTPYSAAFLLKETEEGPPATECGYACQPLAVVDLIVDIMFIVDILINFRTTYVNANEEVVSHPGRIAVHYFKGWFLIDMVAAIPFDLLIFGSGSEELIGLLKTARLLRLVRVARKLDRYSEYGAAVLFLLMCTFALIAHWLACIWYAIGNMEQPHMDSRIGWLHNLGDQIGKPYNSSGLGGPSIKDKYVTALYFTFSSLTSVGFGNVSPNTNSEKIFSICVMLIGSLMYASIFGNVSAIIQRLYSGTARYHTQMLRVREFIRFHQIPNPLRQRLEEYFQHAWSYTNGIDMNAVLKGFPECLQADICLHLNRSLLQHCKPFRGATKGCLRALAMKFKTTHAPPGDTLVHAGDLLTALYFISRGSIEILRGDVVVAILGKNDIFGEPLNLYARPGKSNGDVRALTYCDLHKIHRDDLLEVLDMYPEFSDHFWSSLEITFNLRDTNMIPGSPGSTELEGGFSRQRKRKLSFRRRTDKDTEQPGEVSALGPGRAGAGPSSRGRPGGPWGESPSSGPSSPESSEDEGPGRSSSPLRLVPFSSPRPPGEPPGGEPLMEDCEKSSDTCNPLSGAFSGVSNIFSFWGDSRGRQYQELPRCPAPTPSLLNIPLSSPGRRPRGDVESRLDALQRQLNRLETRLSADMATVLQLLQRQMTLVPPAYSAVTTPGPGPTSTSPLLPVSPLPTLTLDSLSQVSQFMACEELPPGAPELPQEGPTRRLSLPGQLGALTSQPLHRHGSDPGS
T1 sequence (P11712 whole entry): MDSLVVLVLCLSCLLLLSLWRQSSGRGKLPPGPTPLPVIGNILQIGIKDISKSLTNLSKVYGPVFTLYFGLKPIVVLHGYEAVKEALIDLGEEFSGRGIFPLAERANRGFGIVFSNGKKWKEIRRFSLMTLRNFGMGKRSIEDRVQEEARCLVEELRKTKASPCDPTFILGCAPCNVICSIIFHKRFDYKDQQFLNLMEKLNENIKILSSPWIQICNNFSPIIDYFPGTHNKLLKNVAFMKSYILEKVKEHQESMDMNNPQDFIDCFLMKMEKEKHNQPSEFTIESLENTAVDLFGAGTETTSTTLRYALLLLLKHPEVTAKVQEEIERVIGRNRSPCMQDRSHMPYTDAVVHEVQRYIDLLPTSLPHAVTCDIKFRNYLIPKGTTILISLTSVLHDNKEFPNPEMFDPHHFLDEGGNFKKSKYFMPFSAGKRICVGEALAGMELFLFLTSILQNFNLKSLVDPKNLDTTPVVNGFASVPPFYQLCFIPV

Compound COC1CNC[C@H]1Nc1cccc(N2CCN(C[C@H]3CN(c4ccc(C#N)c5ncccc45)C[C@@H](C)O3)CC2)n1 (stereo in doubt) [Example 39, 5-[(2S,6R)-2-[[4-[6-[[(3R,4R)-4-methoxypyrrolidin-3-yl]amino]-2-pyridyl]piperazin-1-yl]methyl]-6-methyl-morpholin-4-yl]quinoline-8-carbonitrile] has an inhibition at 5 min, 10 µM (CYP2C9) of 23%.
In the case of COC1CN(c2nccc(N3CCN(C[C@H]4CN(c5ccc(C#N)c6ncccc56)C[C@@H](C)O4)CC3)n2)C[C@H]1N (stereo in doubt) [Example 52, 5-[(2S,6R)-2-[[4-[2-[(3R,4R)-3-amino-4-methoxy-pyrrolidin-1-yl]pyrimidin-4-yl]piperazin-1-yl]methyl]-6-methyl-morpholin-4-yl]quinoline-8-carbonitrile], the “CYP (%) 2C9 inhibition” value (CYP2C9) is reported as 3.5%.
With CO[C@H]1CN(c2nccc(N3CCN(C[C@H]4CN(c5ccc(C#N)c6ncccc56)C[C@@H](C)O4)CC3)n2)CC1N (stereo in doubt) [Example 53, 5-[(2S,6R)-2-[[4-[2-[(3S,4S)-3-amino-4-methoxy-pyrrolidin-1-yl]pyrimidin-4-yl]piperazin-1-yl]methyl]-6-methyl-morpholin-4-yl]quinoline-8-carbonitrile] the “CYP (%) 2C9 inhibition” value (CYP2C9) was −4.5%.
With C[C@@H]1CN(c2ccc(C#N)c3ncccc23)C[C@H](CN2CCN(c3cncc(N4CCNCC4)c3)CC2)O1 [Example 7, 5-[(2R,6S)-2-methyl-6-[[4-(5-piperazin-1-yl-3-pyridyl)piperazin-1-yl]methyl]morpholin-4-yl]quinoline-8-carbonitrile] the IC20 (hERG channel) was greater than 10 µM, the IC50 (hERG channel) was greater than 20 µM and the “hERG IC20/TLR7 IC50” value (hERG channel) was greater than 294. The “hERG IC20/TLR8 IC50” value (hERG channel) was greater than 1111, the “hERG IC20/TLR9 IC50” value (hERG channel) was greater than 196 and the inhibition at 5 min, 10 µM (CYP2C9) was 2%.
C[C@@H]1CN(c2ccc(C#N)c3ncccc23)C[C@H](CN2CCN(c3ccc(N4CCNCC4)cn3)CC2)O1 [Example 8, 5-[(2R,6S)-2-methyl-6-[[4-(5-piperazin-1-yl-2-pyridyl)piperazin-1-yl]methyl]morpholin-4-yl]quinoline-8-carbonitrile] was tested, and the inhibition at 5 min, 10 µM (CYP2C9) was 1%.
Compound C[C@@H]1CN(c2ccc(C#N)c3ncccc23)C[C@H](CN2CCN(c3cc(N4CCNCC4)ccn3)CC2)O1 [Example 9, 5-[(2R,6S)-2-methyl-6-[[4-(4-piperazin-1-yl-2-pyridyl)piperazin-1-yl]methyl]morpholin-4-yl]quinoline-8-carbonitrile] has an inhibition at 5 min, 10 µM (CYP2C9) of -7.5%.
For C[C@@H]1CN(c2ccc(C#N)c3ncccc23)C[C@H](CN2CCC(C#N)(c3ccc(N4CCNCC4)cc3)CC2)O1 [Example 11, 5-[(2S,6R)-2-[[4-cyano-4-(4-piperazin-1-ylphenyl)-1-piperidyl]methyl]-6-methyl-morpholin-4-yl]quinoline-8-carbonitrile], the inhibition at 5 min, 10 µM (CYP2C9) was 0.5%.
In the case of C[C@@H]1CN(c2ccc(C#N)c3ncccc23)C[C@H](CN2CCN(c3nccc(N4CCNCC4)n3)CC2)O1 [Example 14, 5-[(2R,6S)-2-methyl-6-[[4-(4-piperazin-1-ylpyrimidin-2-yl)piperazin-1-yl]methyl]morpholin-4-yl]quinoline-8-carbonitrile], the inhibition at 5 min, 10 µM (CYP2C9) is reported as 0%.
In the case of C[C@@H]1CN(c2ccc(C#N)c3ncccc23)C[C@H](CN2CCN(c3ccnc(N4CCNCC4)n3)CC2)O1 [Example 15, 5-[(2R,6S)-2-methyl-6-[[4-(2-piperazin-1-ylpyrimidin-4-yl)piperazin-1-yl]methyl]morpholin-4-yl]quinoline-8-carbonitrile], the IC20 (hERG channel) is reported as greater than 10 µM, the IC50 (hERG channel) is reported as greater than 20 µM and the “hERG IC20/TLR7 IC50” value (hERG channel) is reported as greater than 1429. The “hERG IC20/TLR8 IC50” value (hERG channel) was greater than 3333, the “hERG IC20/TLR9 IC50” value (hERG channel) was greater than 278 and the inhibition at 5 min, 10 µM (CYP2C9) was 9%.
Work on C[C@@H]1CN(c2ccc(C#N)c3ncccc23)C[C@H](CN2CCN(c3ccc([C@@H]4CNCCO4)cc3)CC2)O1 [Example 19, 5-[(2R,6S)-2-methyl-6-[[4-[4-[(2R)-morpholin-2-yl]phenyl]piperazin-1-yl]methyl]morpholin-4-yl]quinoline-8-carbonitrile] yielded an inhibition at 5 min, 10 µM (CYP2C9) of 11.5%.
In the case of C[C@@H]1CN(c2ccc(C#N)c3ncccc23)C[C@H](CN2CCN(c3cc(N4CCN(C)CC4)ncn3)CC2)O1 [Example 21, 5-[(2R,6S)-2-methyl-6-[[4-[6-(4-methylpiperazin-1-yl)pyrimidin-4-yl]piperazin-1-yl]methyl]morpholin-4-yl]quinoline-8-carbonitrile], the inhibition at 5 min, 10 µM (CYP2C9) is reported as -3%.
Compound C[C@@H]1CN(c2ccc(C#N)c3ncccc23)C[C@H](CN2CCN(c3ccnc(N4CCN(C)CC4)n3)CC2)O1 [Example 22, 5-((2R,6S)-2-methyl-6-((4-(2-(4-methylpiperazin-1-yl)pyrimidin-4-yl)piperazin-1-yl)methyl)morpholino)quinoline-8-carbonitrile] has an inhibition at 5 min, 10 µM (CYP2C9) of 20%.
With C[C@@H]1CN(c2ccc(C#N)c3ncccc23)C[C@H](CN2CCN(c3ccnc(N[C@H]4CNC[C@H]4F)n3)CC2)O1 [Example 24, 5-[(2S,6R)-2-[[4-[2-[[(3S,4R)-4-fluoropyrrolidin-3-yl]amino]pyrimidin-4-yl]piperazin-1-yl]methyl]-6-methyl-morpholin-4-yl]quinoline-8-carbonitrile] the inhibition at 5 min, 10 µM (CYP2C9) was 3.5%.
Work on C[C@@H]1CN(c2ccc(C#N)c3ncccc23)C[C@H](CN2CCN(c3ccnc(N4CCNCC(O)C4)n3)CC2)O1 (stereo partly drawn) [Example 25, 5-[(2S,6R)-2-[[4-[2-(6-hydroxy-1,4-diazepan-1-yl)pyrimidin-4-yl]piperazin-1-yl]methyl]-6-methyl-morpholin-4-yl]quinoline-8-carbonitrile] yielded an inhibition at 5 min, 10 µM (CYP2C9) of -5.5%.
With C[C@@H]1CN(c2ccc(C#N)c3ncccc23)C[C@H](CN2CCN(c3ccnc(N4CCN[C@@H](CO)C4)n3)CC2)O1 [Example 29, 5-[(2S,6R)-2-[[4-[2-[(3R)-3-(hydroxymethyl)piperazin-1-yl]pyrimidin-4-yl]piperazin-1-yl]methyl]-6-methyl-morpholin-4-yl]quinoline-8-carbonitrile] the inhibition at 5 min, 10 µM (CYP2C9) was -2%.
For C[C@@H]1CN(c2ccc(C#N)c3ncccc23)C[C@H](CN2CCN(c3cccc(NC4CNC4)n3)CC2)O1 [Example 38], the IC20 (hERG channel) was 5.5 µM, the IC50 (hERG channel) was greater than 20 µM and the “hERG IC20/TLR7 IC50” value (hERG channel) was 344. The “hERG IC20/TLR8 IC50” value (hERG channel) was 500, the “hERG IC20/TLR9 IC50” value (hERG channel) was 57 and the inhibition at 5 min, 10 µM (CYP2C9) was 20%.
Compound COC1CN(c2ccc(N3CCN(C[C@H]4CN(c5ccc(C#N)c6ncccc56)C[C@@H](C)O4)CC3)cn2)CC1N (stereo partly drawn) [Example 43, 5-[(2S,6R)-2-[[4-[6-(3-amino-4-methoxy-pyrrolidin-1-yl)-3-pyridyl]piperazin-1-yl]methyl]-6-methyl-morpholin-4-yl]quinoline-8-carbonitrile] has an inhibition at 5 min, 10 µM (CYP2C9) of 2.5%.
C[C@@H]1CN(c2ccc(C#N)c3ncccc23)C[C@H](CN2CCN(c3nc(N4CCNCC4)ncc3F)CC2)O1 [Example 45, 5-[(2S,6R)-2-[[4-(5-fluoro-2-piperazin-1-yl-pyrimidin-4-yl)piperazin-1-yl]methyl]-6-methyl-morpholin-4-yl]quinoline-8-carbonitrile] gave an inhibition at 5 min, 10 µM (CYP2C9) of -3.5%.
In the case of C[C@@H]1CN(c2ccc(C#N)n3ncc(F)c23)C[C@H](CN2CCN(c3ccc(N[C@H]4CNC[C@H]4F)nc3)CC2)O1 [Example 167, 3-fluoro-4-[(2S,6R)-2-[[4-[6-[[(3S,4R)-4-fluoropyrrolidin-3-yl]amino]-3-pyridyl]piperazin-1-yl]methyl]-6-methyl-morpholin-4-yl]pyrazolo[1,5-a]pyridine-7-carbonitrile], the IC20 (hERG channel) is reported as greater than 10 µM, the IC50 (hERG channel) is reported as greater than 20 µM and the “hERG IC20/TLR7 IC50” value (hERG channel) is reported as greater than 714. The “hERG IC20/TLR8 IC50” value (hERG channel) was greater than 294, the “hERG IC20/TLR9 IC50” value (hERG channel) was greater than 217 and the inhibition at 5 min, 10 µM (CYP2C9) was -1%.
C[C@@H]1CN(c2ccc(C#N)n3ncc(F)c23)C[C@H](CN2CCN(c3ccc(N4C[C@H]5NCCO[C@@H]5C4)nc3)CC2)O1 [Example 168, 4-[(2S,6R)-2-[[4-[6-[(4aR,7aR)-3,4,4a,5,7,7a-hexahydro-2H-pyrrolo[3,4-b][1,4]oxazin-6-yl]-3-pyridyl]piperazin-1-yl]methyl]-6-methyl-morpholin-4-yl]-3-fluoro-pyrazolo[1,5-a]pyridine-7-carbonitrile] was tested, and the IC20 (hERG channel) was 8.6 µM, the IC50 (hERG channel) was greater than 20 µM and the “hERG IC20/TLR7 IC50” value (hERG channel) was 430. For the same compound, the “hERG IC20/TLR8 IC50” value (hERG channel) was 150, the “hERG IC20/TLR9 IC50” value (hERG channel) was 74 and the inhibition at 5 min, 10 µM (CYP2C9) was -8%.
C[C@@H]1CN(c2ccc(C#N)n3ncc(F)c23)C[C@H](CN2CCN(c3ccc(N4CC5(CN(C)C5)C4)nc3)CC2)O1 [Example 170, 3-fluoro-4-[(2R,6S)-2-methyl-6-[[4-[6-(6-methyl-2,6-diazaspiro[3.3]heptan-2-yl)-3-pyridyl]piperazin-1-yl]methyl]morpholin-4-yl]pyrazolo[1,5-a]pyridine-7-carbonitrile] gave an inhibition at 5 min, 10 µM (CYP2C9) of -1%.
